Data reported in US12035738B2, “Low calorie food compositions” (Mars, Incorporated, priority 2015, dated 2024).

What was measured:
[1] = Previous tolerability study (H-09-2011), cellobiose consumed as a drink in water based solution; assay type: in vivo, humans
Protocol: (§1) A number of gastro-intestinal symptoms were reported by the panelists in the 24 hours following the sensory sessions, the most common being flatulence (10/10 on at least 1 occasion) and bowel sounds (8/10 on at least 1 occasion). Some degree of […] discomfort was reported by 7/10 panelists on 1 or more occasions and 5 out of the 10 panelists suffered diarrhea following 1 or more sessions. A previous tolerability study carried out using cellobiose (H-09-2011) examined GI effects when cellobiose was delivered in a water based solution and used only male subjects aged between 18-35 yrs. The number and severity of symptoms seen in this study was not expected given the previous tolerability results where cellobiose was consumed as a drink (10, 20, 30 or 50 g of cellobiose was dissolved in 200 ml of hot water and allowed to cool to room temperature overnight). […] With the consumption of 30 g, 4 people (31%) experienced short duration abdominal pain (ranging in severity from 1 to 3 out of 5), 2 people (15%) reported mild flatulence (severity 1 out of 5) and one person reported this at a severity of 3 out of 5. […] Six subjects (46%) reported flatulence (range 1-4 out of 5), and 4 experienced abdominal pain (severity between 1-2 out of 5). Three quarters of subjects were happy to take part in future studies involving the ingestion of cellobiose, even at the highest dose.

[2] = administered to humans as a drink; cited from earlier work
[3] = set-up: species or system humans; conditions: in vivo
Protocol: A panel of 10 assessors were used to evaluate sensory differences between cellobiose containing (2 levels; 75% and 100% sucrose substitution) and standard chocolate.
The maximum amount of cellobiose consumed during one 3 hour sensory session was set at 20 g and 8 g respectively (100% cellobiose sample contained 49.5 g cellobiose/100 g, 75% cellobiose sample contained 34.7 g/100 g and 60% inulin sample contained 29.7 g inulin/100 g).
For each attribute, panelists were presented with all samples (˜3.5 g sample size) allowing comparative assessment. Panelists first determined rank order and then assigned ratings using separate line scales for each sample/attribute.
All samples were presented in 2 oz plastic pots labelled with random 3 digit codes. Panelists were provided with unsalted cracker (Rakusen, U.K.), green apple slices and mineral water (Evian, France) for palate cleansing. Attributes were assessed in blocks of 2 followed by 15 mins rest breaks.
as §1

[4] = 30 g cellobiose, severity 1 out of 5

O=C[C@H](O)[C@@H](O)[C@H](O[C@@H]1O[C@H](CO)[C@@H](O)[C@H](O)[C@H]1O)[C@H](O)CO [cellobiose]
abdominal symptoms reported ([1]; 10 g cellobiose in 200 ml water): mild or no abdominal symptoms | abdominal symptoms reported ([1]; 20 g cellobiose in 200 ml water): mild or no abdominal symptoms | people who experienced short duration abdominal pain ([1]; 30 g cellobiose): 4 people | persons who reported flatulence at a severity of 3 out of 5 ([1]; 30 g cellobiose): one | severity of mild flatulence ([1]; 30 g cellobiose): 1 out of 5 | share of people with short duration abdominal pain ([1]; 30 g cellobiose): 31% | people who reported mild flatulence [1, 4]: 2 people | share of people with mild flatulence [1, 4]: 15% | abdominal pain severity ([1]; 50 g cellobiose): 1-2 out of 5 | flatulence severity range ([1]; 50 g cellobiose): 1-4 out of 5 | persons who reported diarrhea in the first 24 h ([1]; 50 g cellobiose): 1 | persons with a single episode of diarrhea 2 h after consuming ([1]; 50 g cellobiose): 1 person | share of subjects who reported flatulence ([1]; 50 g cellobiose): 46% | subjects who experienced abdominal pain ([1]; 50 g cellobiose): 4 | subjects who reported flatulence ([1]; 50 g cellobiose): Six | unpleasant side effects [2]: not observed to such a great degree | panelists reporting bowel sounds ([3]; human, 24 h): 8/10 | panelists reporting flatulence ([3]; human, 24 h): 10/10 | panelists reporting some degree of abominable discomfort ([3]; human, 24 h): 7/10 | panelists who suffered diarrhea ([3]; human, 24 h): 5 out of the 10 panelists | Symptoms (y/n) [3]: Y | undesirable side effects [3]: stomach cramps, nausea, diarrhea and loss of appetite
